According to paper PMC10447463, “Data-mining unveils structure–property–activity correlation of viral infectivity enhancing self-assembling peptides” (Nature Communications, 2023):

What was measured:
[1] = system: HIV-1 infection of TZM-bl cells; assay: HIV-1 infectivity enhancement assay, β-galactosidase luminescence; format: cell-based; conditions: for Log10 Infection Rel EF-C: log10 of infection relative to EF-C, Figure 7B; for Inf. rel. EF-C: n-fold infection vs virus only, relative to that of EF-C, 1.3 µM peptide
[2] = format: physicochemical; conditions: for ThT Cat. / ThT-Fluorescence (categorical): ThT-active if fluorescence at least twice the control
Outline: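 Preformed peptide fibrils (1 mg/mL) mixed with 50 µM ThT in PBS, 15 min at RT, fluorescence ex 440/em 488 nm versus PBS blank, triplicates. Zeta potential: peptides at 1 mg/mL in PBS pH 7.4, aged 1 d at RT, diluted in 1 mM KCl, Smoluchowski from electrophoretic mobility.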

[3] = Zeta-potential measurement; format: physicochemical; conditions: for Zeta pot. / mV: 1 mg/mL in PBS pH 7.4 from 10 mg/mL DMSO stock, 1 d RT, 60 µL diluted in 600 µL 1 mM KCl, Zetasizer Nano ZS, Smoluchowski, mean of triplicate; for Zeta-Potential / mV: mean, Figure 7B
Outline: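 Zeta potentials of aggregated peptides come from electrophoretic mobility (Smoluchowski model) in 1 mM KCl after a 1 d RT incubation at 1 mg/mL in PBS, pH 7.4.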

[4] = Turbidity, derived count rate of scattered light; format: physicochemical; conditions: log10 of derived count rate of scattered light, Figure 7B

Substance | Log10 Infection Rel EF-C [1] | Inf. rel. EF-C [1] | ThT Cat. / ThT-Fluorescence (categorical) [2] | Zeta pot. / mV [3] [mV] | Zeta-Potential / mV [3] [mV] | Log10 Count Rate [4] | Tht rel to blank (42.1851851851852) ([2]; ThT fluorescence relative to blank, blank = 42.1851851851852) | Tht category (> 1.5 to blank = +) ([2]; category 1/0) | Zeta Pot. / mV [3] [mV] | Zeta category ( +1 = if > 4 mV;-1 = if < -4 mV; 0 = -4mV to 4 mV) [3]
VQIVYK [reference compound] | -1.17 | 0.07 | 0 (ThT-inactive (N-Fold <2)) | -2.7 | -2.66 | 1.414 |  |  |  | 
RCELARTLKR [reference compound] | -1.06 | 0.09 | 0 (ThT-inactive (N-Fold <2)) | -0.9 | -0.85 | 1.893 |  |  |  | 
GAITIG-NH2 [reference compound] | -1.35 | 0.04 | 0 (ThT-inactive (N-Fold <2)) | -5.4 | -5.36 | 1.474 |  |  |  | 
DFNKF [reference compound] | -1.07 | 0.08 | 0 (ThT-inactive (N-Fold <2)) | -11.8 | -11.77 | 3.027 |  |  |  | 
VLYVGSKT [reference compound] | -1.24 | 0.06 | 0 (ThT-inactive (N-Fold <2)) | -9.1 | -9.07 | 1.386 |  |  |  | 
GQTVTK [reference compound] | -1.25 | 0.06 | 0 (ThT-inactive (N-Fold <2)) | -5.3 | -5.26 | 1.536 |  |  |  | 
RIRIQIC [PS07] |  |  |  |  |  |  | 1.32 | 0 (ThT-inactive (N-Fold <2)) | 16 | 1 (+1 = if > 4 mV)
GNNQQNY [reference compound] | -1.28 | 0.05 | 0 (ThT-inactive (N-Fold <2)) | -6.6 | -6.62 | 1.572 |  |  |  | 
NSGAITIG-NH2 [reference compound] | -1.26 | 0.05 | 0 (ThT-inactive (N-Fold <2)) | -8.4 | -8.45 | 1.294 |  |  |  | 
IIKIIK [reference compound] | -1.1 | 0.08 | 0 (ThT-inactive (N-Fold <2)) | -7.0 | -7 | 0.6128 |  |  |  | 
